In patent US20110306597A1, “Nicotinamide Derivatives” (priority 2008, published 2011):
pIC50: −log10 of the molar value.

Molecular target: human recombinant H-PGDS (Homo sapiens, UniProt O60760)
Assay: Fluorescence Intensity h-PGDS TBA Enzyme Assay
Assay type: biochemical
Settings: 1:175,000 human recombinant H-PGDS, highest inhibitor concentration typically 1 μM
How it was run: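 Recombinant human H-PGDS preincubated 10 min at room temperature with inhibitor in 100 mM Tris pH 8.0, 100 μM MgCl2, 2.5 mM glutathione, 0.5% DMSO; 5.0 μM PGH2 added, stopped after 42 s with FeCl2/citric acid. Remaining PGH2 measured as MDA–TBA fluorescence (ex 530/em 565 nm); IC50 by 4-parameter fit, 11 concentrations.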

Chain of human recombinant H-PGDS (O60760 whole entry): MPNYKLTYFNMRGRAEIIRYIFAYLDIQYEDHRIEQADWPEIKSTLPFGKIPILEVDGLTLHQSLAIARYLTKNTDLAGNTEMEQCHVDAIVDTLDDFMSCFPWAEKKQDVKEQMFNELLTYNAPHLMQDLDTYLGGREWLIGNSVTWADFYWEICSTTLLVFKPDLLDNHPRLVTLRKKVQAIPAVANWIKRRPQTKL

Molecule | pIC50
CCOC(=O)C1(NC(=O)c2ccc(-c3ccc(F)cc3)nc2)CCOCC1 [Example 495, Ethyl 4-({[6-(4-fluorophenyl)pyridin-3-yl]carbonyl}amino)tetrahydro-2H-pyran-4-carboxylate] | ≤ 6.00
COc1ccc(CNC(=O)c2ccc(-c3cccc(OC)c3)nc2)cc1 [Example 303, N-(4-Methoxybenzyl)-6-(3-methoxyphenyl)nicotinamide] | 6.48
CCCOCCCNC(=O)c1ccc(-c2cc(F)cc(OC)c2)nc1 [Example 557, 6-(3-Fluoro-5-methoxypheny)-N-(3-propoxypropyl)nicotinamide] | 7.05
COc1cc(F)cc(-c2ccc(C(=O)NCC3CCN(C(C)=O)CC3)cn2)c1 [Example 558, N-[(1-Acetylpiperidin-4-yl)methyl]-6-(3-fluoro-5-methoxyphenyl)nicotinamide] | 6.92
CN1CCC(CNC(=O)c2ccc(-c3cccc(F)c3)nc2)CC1 [Example 113, 6-(3-Fluorophenyl)-N-[(1-methylpiperidin-4-yl)methyl]nicotinamide] | 6.83
COc1cc(F)cc(-c2ccc(C(=O)NCc3ccc(OC)c(OC)c3)cn2)c1 [Example 556, N-(3,4-Dimethoxybenzyl)-6-(3-fluoro-5-methoxyphenyl)nicotinamide] | 7.05
Cn1ccnc1C(NC(=O)c1ccc(-c2cccc(F)c2)nc1)c1c(F)cccc1F (stereo not drawn) [Example 25, N-[(2,6-Difluorophenyl)(1-methyl-1H-imidazol-2-yl)methyl]-6-(3-fluorophenyl)nicotinamide] | 6.40
COC(=O)[C@H](C)NC(=O)c1ccc(-c2cccc(F)c2)nc1 [Example 174, Methyl N-{[6-(3-fluorophenyl)pyridin-3-yl]carbonyl}alaninate] | 6.22
O=C(NCc1noc(C(=O)N2CC[C@@H](O)C2)n1)c1ccc(-c2cccc(F)c2)nc1 [Example 211, 6-(3-Fluorophenyl)-N-[(5-{[(3R)-3-hydroxypyrrolidin-1-yl]carbonyl}-1,2,4-oxadiazol-3-yl)methyl]nicotinamide] | 6.44
CN1CCN(CC(CNC(=O)c2ccc(-c3cccc(F)c3)nc2)c2ccccc2)CC1 (stereo not drawn) [Example 103, 6-(3-Fluorophenyl)-N-[3-(4-methylpiperazin-1-yl)-2-phenylpropyl]nicotinamide] | 6.50
O=C(NCCCNc1ccccn1)c1ccc(-c2ccc(F)cc2)nc1 [Example 261, 6-(4-Fluorophenyl)-N-[3-(pyridin-2-ylamino)propyl]nicotinamide] | 7.04
Cc1cccc(-c2ccc(C(=O)NCC(=O)N(C)C)cn2)c1 [Example 244, N-[2-(Dimethylamino)-2-oxoethyl]-6-(3-methylphenyl)nicotinamide] | 6.64
6-(3-Fluorophenyl)-N-{[1- (2-methoxyethyl)piperidin- 3-yl]methyl}nicotinamide [Example 438] | 6.43
COc1ccc(CNC(=O)c2ccc(-c3ccc(F)cc3)nc2)cc1OC [Example 461, N-(3,4-Dimethoxybenzyl)-6-(4-fluorophenyl) nicotinamide] | 7.04
CC(C)[C@H](N)C(=O)NC(=O)c1ccc(-c2ccc(F)cc2)nc1 [Example 501, 6-(4-Fluorophenyl)-N-L-valylnicotinamide] | ≤ 6.00

The next molecules have a higher pIC50 than those just listed; values first:

pIC50 | Molecule
7.08 | O=C(NC[C@H]1CC[C@H](c2nnc(C3CC3)[nH]2)CC1)c1ccc(-c2cccc(F)c2)nc1 [Example 9, N-{[trans-4-(5-Cyclopropyl-4H-1,2,4-triazol-3-yl)cyclohexyl]methyl}-6-(3-fluorophenyl)nicotinamide]
7.11 | CN1CCC2(CC1)COC(CNC(=O)c1ccc(-c3cccc(F)c3)nc1)C2 (stereo not drawn) [Example 52, 6-(3-Fluorophenyl)-N-[(8-methyl-2-oxa-8-azaspiro[4.5]dec-3-yl)methyl]nicotinamide]
7.22 | O=C(NCc1nc2ccccc2s1)c1cnc(-c2cccc(F)c2)c(Cl)c1 [Example 546, N-(1,3-Benzothiazol-2-ylmethyl)-5-chloro-6-(3-fluorophenyl)nicotinamide]
7.31 | O=C(NCc1cc(F)cc2c1OCOC2)c1ccc(-c2cccc(F)c2)nc1 [Example 184, N-[(6-Fluoro-4H-1,3-benzodioxin-8-yl)methyl]-6-(3-fluorophenyl)nicotinamide]
7.32 | O=C(NCCC1CCC(=O)N1CCN1CCCC1)c1ccc(-c2cccc(F)c2)nc1 (stereo not drawn) [Example 75, 6-(3-Fluorophenyl)-N-{2-[5-oxo-1-(2-pyrrolidin-1-ylethyl)pyrrolidin-2-yl]ethyl}nicotinamide]
7.34 | COc1ccc2nc(CNC(=O)c3ccc(-c4cccc(F)c4)nc3)[nH]c2c1 [Example 441, 6-(3-Fluorophenyl)-N-[(6-methoxy-1H-benzimidazol-2-yl)methyl]nicotinamide]
7.36 | O=C(NCc1ccc(Cl)c(Cl)c1)c1ccc(-c2cccc(F)c2)nc1 [Example 154, N-(3,4-Dichlorobenzyl)-6-(3-fluorophenyl)nicotinamide]
7.45 | COCCN1CC(CNC(=O)c2ccc(-c3cccc(F)c3)nc2)CC1=O (stereo not drawn) [Example 20, 6-(3-Fluorophenyl)-N-{[1-(2-methoxyethyl)-5-oxopyrrolidin-3-yl]methyl}nicotinamide]
7.50 | O=C(NCc1nncn1C1CCCCC1)c1ccc(-c2cccc(F)c2)nc1 [Example 99, N-[(4-Cyclohexyl-4H-1,2,4-triazol-3-yl)methyl]-6-(3-fluorophenyl)nicotinamide]
7.53 | Cc1cccc(-c2ccc(C(=O)NCCN3CCN(Cc4ccccc4)CC3)cn2)c1 [Example 249, N-[2-(4-Benzylpiperazin-1-yl)ethyl]-6-(3-methylphenyl)nicotinamide]
7.53 | Cc1cccc(-c2ccc(C(=O)NCc3ccco3)cn2)c1 [Example 246, N-(2-Furylmethyl)-6-(3-methylphenyl)nicotinamide]
7.90 | O=C(NCCC1CCC(=O)N1CCN1CCOCC1)c1ccc(-c2cccc(F)c2)nc1 (stereo not drawn) [Example 42, 6-(3-Fluorophenyl)-N-{2-[1-(2-morpholin-4-ylethyl)-5-oxopyrrolidin-2-yl]ethyl}nicotinamide]
7.95 | O=C(NC1CCN(Cc2ccc(Cl)cc2)C1=O)c1ccc(-c2ccccc2)nc1 (stereo not drawn) [Example 377, N-[1-(4-Chlorobenzyl)-2-oxopyrrolidin-3-yl]-6-phenylnicotinamide]
8.04 | Cc1cccc(-c2ccc(C(=O)NCc3nnc(-c4cccnc4)[nH]3)cn2)c1 [Example 448, 6-(3-Methylphenyl)-N-[(5-pyridin-3-yl-4H-1,2,4-triazol-3-yl)methyl]nicotinamide]
8.04 | O=C(NCCc1nnc(C2CC2)[nH]1)c1ccc(-c2cccc(F)c2)nc1 [Example 88, N-[2-(5-Cyclopropyl-4H-1,2,4-triazol-3-yl)ethyl]-6-(3-fluorophenyl)nicotinamide]
8.28 | O=C(NCc1nnc(-c2cccnc2)[nH]1)c1ccc(-c2ccccc2)nc1 [Example 514, 6-Phenyl-N-[(5-pyridin-3-yl-4H-1,2,4-triazol-3-yl)methyl]nicotinamide]
8.32 | O=C(Nc1ccc(F)cc1)c1ccc(-c2ccccc2)nc1 [Example 521, N-(4-Fluorophenyl)-6-phenylnicotinamide]
8.40 | Cc1cccc2c1OCCC2NC(=O)c1ccc(-c2cccc(F)c2)nc1 (stereo not drawn) [Example 532, 6-(3-Fluorophenyl)-N-(8-methyl-3,4-dihydro-2H-chromen-4-yl)nicotinamide]
